Values of other authors, collected in US20190160050A1, “SMALL MOLECULE INHIBITION FOR PREVENTING OR TREATING FIBROTIC DISEASES” (THE REGENTS OF THE UNIVERSITY OF CALIFORNIA, priority 2016, published 2019).

Legend:
[1] = test system: JNK; conditions: read-out: IC50 as competitive inhibitor of JNK
[2] = test system: Akt/PKB; conditions: read-out: IC50 (Akt/PKB inhibitor)
[3] = target: Src (Homo sapiens, UniProt P12931)
[4] = target: Lck (Homo sapiens, UniProt P06239)
[5] = target: vascular endothelial growth factor receptor 2 (Homo sapiens, UniProt P35968)
vascular endothelial growth factor receptor 2, sequence (P35968 20-1356, species assumed): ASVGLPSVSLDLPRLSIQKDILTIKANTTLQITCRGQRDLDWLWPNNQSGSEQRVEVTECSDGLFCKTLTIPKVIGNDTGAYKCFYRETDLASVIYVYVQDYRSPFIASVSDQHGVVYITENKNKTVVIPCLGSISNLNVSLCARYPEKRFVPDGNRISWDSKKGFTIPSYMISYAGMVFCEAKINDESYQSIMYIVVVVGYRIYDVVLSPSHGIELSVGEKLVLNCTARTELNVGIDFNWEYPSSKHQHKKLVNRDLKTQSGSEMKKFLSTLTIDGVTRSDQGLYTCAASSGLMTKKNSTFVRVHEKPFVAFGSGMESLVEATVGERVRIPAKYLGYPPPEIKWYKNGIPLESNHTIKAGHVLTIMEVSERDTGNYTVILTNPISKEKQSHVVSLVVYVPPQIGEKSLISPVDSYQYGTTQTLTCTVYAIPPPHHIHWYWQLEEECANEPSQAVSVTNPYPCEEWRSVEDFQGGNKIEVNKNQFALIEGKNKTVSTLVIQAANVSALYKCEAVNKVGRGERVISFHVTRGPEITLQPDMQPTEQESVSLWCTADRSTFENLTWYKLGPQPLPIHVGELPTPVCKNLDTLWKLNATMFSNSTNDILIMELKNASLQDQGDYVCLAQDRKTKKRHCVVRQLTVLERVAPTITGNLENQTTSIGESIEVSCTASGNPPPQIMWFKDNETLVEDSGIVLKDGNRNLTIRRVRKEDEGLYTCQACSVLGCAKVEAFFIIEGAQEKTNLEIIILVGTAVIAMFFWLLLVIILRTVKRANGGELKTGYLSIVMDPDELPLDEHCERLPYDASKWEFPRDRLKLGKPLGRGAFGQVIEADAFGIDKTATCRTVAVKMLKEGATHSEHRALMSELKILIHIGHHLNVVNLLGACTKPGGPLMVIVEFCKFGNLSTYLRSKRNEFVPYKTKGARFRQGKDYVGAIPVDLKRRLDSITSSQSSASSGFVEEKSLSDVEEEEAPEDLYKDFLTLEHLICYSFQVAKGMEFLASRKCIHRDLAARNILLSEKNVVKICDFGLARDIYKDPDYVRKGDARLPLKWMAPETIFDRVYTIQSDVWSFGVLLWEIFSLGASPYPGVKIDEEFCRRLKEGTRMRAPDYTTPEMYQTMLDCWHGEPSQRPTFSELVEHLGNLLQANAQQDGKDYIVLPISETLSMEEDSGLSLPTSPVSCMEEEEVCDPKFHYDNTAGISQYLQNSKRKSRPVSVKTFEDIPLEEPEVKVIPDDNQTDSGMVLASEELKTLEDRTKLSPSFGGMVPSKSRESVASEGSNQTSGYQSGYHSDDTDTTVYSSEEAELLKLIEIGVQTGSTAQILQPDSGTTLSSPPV

[6] = target: c-fms (Homo sapiens, UniProt P07333); conditions: read-out: IC50 for c-fms tyrosine kinase
c-fms, sequence (P07333 20-972): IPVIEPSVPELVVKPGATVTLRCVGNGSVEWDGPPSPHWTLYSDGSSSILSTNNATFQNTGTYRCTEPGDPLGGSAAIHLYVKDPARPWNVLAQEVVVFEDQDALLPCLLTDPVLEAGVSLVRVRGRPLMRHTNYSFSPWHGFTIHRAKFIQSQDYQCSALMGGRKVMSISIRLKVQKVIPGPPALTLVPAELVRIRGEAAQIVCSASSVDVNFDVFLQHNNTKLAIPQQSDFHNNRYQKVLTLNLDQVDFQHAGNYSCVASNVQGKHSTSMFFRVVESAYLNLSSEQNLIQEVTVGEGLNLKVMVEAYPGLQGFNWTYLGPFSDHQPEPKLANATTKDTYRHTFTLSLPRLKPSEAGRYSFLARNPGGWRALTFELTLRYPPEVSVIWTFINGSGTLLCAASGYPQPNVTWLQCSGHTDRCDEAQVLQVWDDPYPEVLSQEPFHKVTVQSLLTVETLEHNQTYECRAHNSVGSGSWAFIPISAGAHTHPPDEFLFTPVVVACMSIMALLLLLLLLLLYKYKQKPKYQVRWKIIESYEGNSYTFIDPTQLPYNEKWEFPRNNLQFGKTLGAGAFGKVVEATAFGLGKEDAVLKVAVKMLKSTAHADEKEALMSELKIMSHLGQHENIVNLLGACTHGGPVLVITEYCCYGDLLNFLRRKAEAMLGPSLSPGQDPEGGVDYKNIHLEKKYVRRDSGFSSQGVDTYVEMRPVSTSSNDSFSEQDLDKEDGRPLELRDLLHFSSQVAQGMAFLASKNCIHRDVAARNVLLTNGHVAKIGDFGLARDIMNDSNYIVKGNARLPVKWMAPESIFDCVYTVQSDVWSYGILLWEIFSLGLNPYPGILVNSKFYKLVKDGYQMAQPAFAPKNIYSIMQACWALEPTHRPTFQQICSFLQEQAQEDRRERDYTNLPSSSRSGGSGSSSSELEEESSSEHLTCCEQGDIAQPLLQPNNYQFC

Src, sequence (P12931 whole entry, species assumed): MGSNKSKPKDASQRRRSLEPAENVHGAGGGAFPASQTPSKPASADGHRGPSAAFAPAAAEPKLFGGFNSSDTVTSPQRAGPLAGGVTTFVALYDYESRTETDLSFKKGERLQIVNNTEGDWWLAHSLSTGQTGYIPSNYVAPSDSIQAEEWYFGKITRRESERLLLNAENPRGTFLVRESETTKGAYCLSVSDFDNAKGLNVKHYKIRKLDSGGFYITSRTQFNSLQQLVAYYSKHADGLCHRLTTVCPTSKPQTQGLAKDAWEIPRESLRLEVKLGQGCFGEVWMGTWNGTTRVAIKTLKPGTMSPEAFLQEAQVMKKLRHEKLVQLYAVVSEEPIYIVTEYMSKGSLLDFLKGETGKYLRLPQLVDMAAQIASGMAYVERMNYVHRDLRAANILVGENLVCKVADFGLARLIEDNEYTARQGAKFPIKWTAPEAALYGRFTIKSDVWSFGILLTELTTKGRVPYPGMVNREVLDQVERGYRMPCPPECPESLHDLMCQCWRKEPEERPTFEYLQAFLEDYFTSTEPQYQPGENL
Lck, sequence (P06239 whole entry, species assumed): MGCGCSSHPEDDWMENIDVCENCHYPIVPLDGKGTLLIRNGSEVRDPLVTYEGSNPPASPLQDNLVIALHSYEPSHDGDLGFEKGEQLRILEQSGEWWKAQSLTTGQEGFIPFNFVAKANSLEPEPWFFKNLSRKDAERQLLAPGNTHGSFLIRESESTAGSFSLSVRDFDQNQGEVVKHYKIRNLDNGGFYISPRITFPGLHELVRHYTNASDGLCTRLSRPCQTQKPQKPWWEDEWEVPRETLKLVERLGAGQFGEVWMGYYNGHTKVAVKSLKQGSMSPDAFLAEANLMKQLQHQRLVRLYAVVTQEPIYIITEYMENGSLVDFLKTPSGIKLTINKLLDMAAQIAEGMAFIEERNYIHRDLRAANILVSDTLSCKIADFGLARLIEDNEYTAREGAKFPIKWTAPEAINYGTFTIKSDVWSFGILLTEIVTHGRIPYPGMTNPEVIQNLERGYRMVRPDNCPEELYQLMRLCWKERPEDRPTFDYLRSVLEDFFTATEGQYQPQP

For `O=c1[nH]nc(Sc2ncc([N+](=O)[O-])s2)n1-c1ccc2c(c1)OCCO2` [BI 78D3, 4-(2,3-dihydro-1,4-benzodioxin-6-yl)-2,4-dihydro-5-[(5-nitro-2-thiazolyl)thio]-3H-1,2,4-triazol-3-one], which IC50 [1] is on record?
Its IC50 is 280 nM.

For `NC(=S)N/N=C/c1coc2ccccc2c1=O.[Cl][Cu][Cl]` [FPA 124], which IC50 [2] is on record?
The IC50 was 100 nM.

For `COc1cc2ncnc(Nc3ccc(Oc4ccccc4)cc3)c2cc1OC` [Src Inhibitor-1, 4-(4′-Phenoxyanilino)-6,7-dimethoxyquinazoline, 6,7-Dimethoxy-N-(4-phenoxyphenyl)-4-quinazolinamine], which IC50 [3] is on record?
Its IC50 is 44 nM.

What about the IC50 [4] of the same compound?
The IC50 was 88 nM.

What about the IC50 [5] of the same compound?
Its IC50 is 320 nM.

What about the IC50 [6] of the same compound?
Its IC50 is 30000 nM.
